# According to patent US9771370B2, “Compounds for the inhibition of indoleamine-2,3-dioxygenase” (Merck Patent GmbH, priority 2014, dated 2017):
# Target: Recombinant human IDO (Homo sapiens, UniProt P14902)
# Assay: Bridge-IT tryptophan fluorescence assay of human IDO-1 inhibition
# Assay type: biochemical
# Conditions: recombinant human IDO 7.5 nM, L-tryptophan
# Outline: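 Two protocol variants: 100 μM L-Trp for 90 min at 37 °C, or 30 min enzyme–compound pre-incubation at 25 °C, then 50 μM L-Trp for 60 min at 25 °C. Reaction stopped in Bridge-IT solution A for 30 min at 30 °C.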
# Sequence of Recombinant human IDO (P14902 whole entry): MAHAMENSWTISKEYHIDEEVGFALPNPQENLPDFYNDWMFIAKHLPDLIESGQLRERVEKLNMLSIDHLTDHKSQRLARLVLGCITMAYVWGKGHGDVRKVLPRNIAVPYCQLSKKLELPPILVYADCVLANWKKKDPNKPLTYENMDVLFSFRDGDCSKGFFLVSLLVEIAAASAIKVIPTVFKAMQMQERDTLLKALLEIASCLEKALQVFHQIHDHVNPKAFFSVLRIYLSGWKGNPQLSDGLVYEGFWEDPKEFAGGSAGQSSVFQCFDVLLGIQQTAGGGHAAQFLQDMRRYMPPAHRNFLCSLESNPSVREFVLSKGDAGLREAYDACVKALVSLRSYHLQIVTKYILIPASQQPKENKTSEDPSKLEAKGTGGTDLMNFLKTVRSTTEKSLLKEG
row,SMILES,IC50 [µM]
1,"OC(CC1c2ncccc2-c2cncn21)C1CCC(C2(O)CC2)CC1 (single isomer, unassigned) [Compound 117d, 1-[4-[1-hydroxy-2-[4,6,9-triazatricyclo[6.4.0.0^[2,6]]dodeca-1(8),2,4,9,11-pentaen-7-yl]ethyl]cyclohexyl]cyclopropan-1-ol]",> 1
2,"COc1ccc2c(n1)C(CC(N)C1CCCCC1)n1cncc1-2 (single isomer, unassigned) [Compound 118c, 1-cyclohexyl-2-[10-methoxy-4,6,9-triazatricyclo[6.4.0.0^[2,6]]dodeca-1(8),2,4,9,11-pentaen-7-yl]ethan-1-amine]",> 1
3,"COc1ccc2c(n1)C(CC(N)C1CCC(C)(C)CC1)n1cncc1-2 (single isomer, unassigned) [Compound 119a, 1-(4,4-dimethylcyclohexyl)-2-[10-methoxy-4,6,9-triazatricyclo[6.4.0.0^[2,6]]dodeca-1(8),2,4,9,11-pentaen-7-yl]ethan-1-amine]",> 1
4,"COc1ccc2c(n1)C(CC(N)C1CCC(C)(C)CC1)n1cncc1-2 (single isomer, unassigned) [Compound 119b, 1-(4,4-dimethylcyclohexyl)-2-[10-methoxy-4,6,9-triazatricyclo[6.4.0.0^[2,6]]dodeca-1(8),2,4,9,11-pentaen-7-yl]ethan-1-amine]",> 1
5,"COc1ccc2c(n1)C(CC(N)C1CCC(C)(C)CC1)n1cncc1-2 (single isomer, unassigned) [Compound 119d, 1-(4,4-dimethylcyclohexyl)-2-[10-methoxy-4,6,9-triazatricyclo[6.4.0.0^[2,6]]dodeca-1(8),2,4,9,11-pentaen-7-yl]ethan-1-amine]",> 1
6,"COc1ccc2c(n1)C(CC(N)C1CCC(F)(F)CC1)n1cncc1-2 (single isomer, unassigned) [Compound 120a, 1-(4,4-difluorocyclohexyl)-2-[10-methoxy-4,6,9-triazatricyclo[6.4.0.0^[2,6]]dodeca-1(8),2,4,9,11-pentaen-7-yl]ethan-1-amine]",> 1
7,"COc1ccc2c(n1)C(CC(N)C1CCC(F)(F)CC1)n1cncc1-2 (single isomer, unassigned) [Compound 120b, 1-(4,4-difluorocyclohexyl)-2-[10-methoxy-4,6,9-triazatricyclo[6.4.0.0^[2,6]]dodeca-1(8),2,4,9,11-pentaen-7-yl]ethan-1-amine]",> 1
8,"COc1ccc2c(n1)C(CC(N)C1CCC(F)(F)CC1)n1cncc1-2 (single isomer, unassigned) [Compound 120d, 1-(4,4-difluorocyclohexyl)-2-[10-methoxy-4,6,9-triazatricyclo[6.4.0.0^[2,6]]dodeca-1(8),2,4,9,11-pentaen-7-yl]ethan-1-amine]",> 1
9,"NS(=O)(=O)C1CCC(F)(CCC2c3ccccc3-c3cncn32)CC1 (single isomer, unassigned) [Compound 121b, 4-fluoro-4-[2-[5H-imidazo[4,3-a]isoindol-5-yl]ethyl]cyclohexane-1-sulfonamide]",> 1
10,"NS(=O)(=O)C1CCC(F)(CCC2c3ccccc3-c3cncn32)CC1 (single isomer, unassigned) [Compound 121c, 4-fluoro-4-[2-[5H-imidazo[4,3-a]isoindol-5-yl]ethyl]cyclohexane-1-sulfonamide]",> 1
11,"OC(CC1c2c(ccnc2F)-c2cncn21)C1CCCCC1 (centres unmarked) [Compound 2a, 1-Cyclohexyl-2-[9-fluoro-4,6,10-triazatricyclo[6.4.0.0^[2,6]]dodeca-1(8),2,4,9,11-pentaen-7-yl]ethan-1-ol]",> 1
12,"OC(CC1c2c(F)cncc2-c2cncn21)C1CCCCC1 (centres unmarked) [Compound 3a, 1-cyclohexyl-2-[9-fluoro-4,6,11-triazatricyclo[6.4.0.0^[2,6]]dodeca-1(8),2,4,9,11-pentaen-7-yl]ethan-1-ol]",> 1
13,"OC1CCC(C(O)CC2c3ncccc3-c3cncn32)CC1 (centres unmarked) [Compound 6a, 4-[1-hydroxy-2-[4,6,9-triazatricyclo[6.4.0.0^[2,6]]dodeca-1(8),2,4,9,11-pentaen-7-yl]ethyl]cyclohexan-1-ol]",> 1
14,"OC(CC1c2cnccc2-c2cncn21)C1CCCCC1 (centres unmarked) [Compound 9a, 1-Cyclohexyl-2-[4,6,10-triazatricyclo[6.4.0.0^[2,6]]dodeca-1(8),2,4,9,11-pentaen-7-yl]ethan-1-ol]",> 1
15,"COc1cc2c(cn1)-c1cncn1C2CC(O)C1CCCCC1 (centres unmarked) [Compound 11b, 1-cyclohexyl-2-[10-methoxy-4,6,11-triazatricyclo[6.4.0.0^[2,6]]dodeca-1(8),2,4,9,11-pentaen-7-yl]ethan-1-ol]",> 1
16,"OC(CC1c2ncccc2-c2cncn21)c1ccccc1 (centres unmarked) [Compound 12b, 1-Phenyl-2-[4,6,9-triazatricyclo[6.4.0.0^[2,6]]dodeca-1(8),2,4,9,11-pentaen-7-yl]ethan-1-ol]",> 1
17,"O[C@H]1CC[C@](F)(CC[C@@H]2c3ccccc3-c3cncn32)CC1 [Compound 14a, (1R,4s)-4-(2-((R)-5H-imidazo[5,1-a]isoindol-5-yl)ethyl)-4-fluorocyclohexan-1-ol]",> 1
18,"NC(CC1c2ncccc2-c2cncn21)C1CCCCC1 (centres unmarked) [Compound 21a, 1-cyclohexyl-2-[4,6,9-triazatricyclo[6.4.0.0^[2,6]]dodeca-1(8),2,4,9,11-pentaen-7-yl]ethan-1-amine]",> 1
19,"COc1cccc2c1-c1cncn1C2CCC1(F)CCC(O)CC1 (centres unmarked) [Compound 41a, 4-fluoro-4-(2-(9-methoxy-5H-imidazo[5,1-a]isoindol-5-yl)ethyl)cyclohexanol]",> 1
20,"Fc1ccc2c(n1)C(CCC1(F)CCC(F)(F)CC1)n1cncc1-2 (centres unmarked) [Compound 46, 10-fluoro-7-[2-(1,4,4-trifluorocyclohexyl)ethyl]-4,6,9-triazatricyclo[6.4.0.0^[2,6]]dodeca-1(8),2,4,9,11-pentaene]",> 1
21,"OC1CCC(CCC2c3ncccc3-c3cncn32)CC1 (centres unmarked) [Compound 47, 4-(2-[4,6,9-triazatricyclo[6.4.0.0^[2,6]]dodeca-1(8),2,4,9,11-pentaen-7-yl]ethyl)cyclohexan-1-ol]",> 1
22,"CC1(C)CCC(CCC2c3ncccc3-c3cncn32)CC1 (centres unmarked) [Compound 51, 7-[2-(4,4-dimethylcyclohexyl)ethyl]-4,6,9-triazatricyclo[6.4.0.0^[2,6]]dodeca-1(8),2,4,9,11-pentaene]",> 1
23,"OC(CC1c2nc(Cl)ccc2-c2cncn21)C1CCC(F)(F)CC1 (centres unmarked) [Compound 52b, 2-[10-chloro-4,6,9-triazatricyclo[6.4.0.0^[2,6]]dodeca-1(8),2,4,9,11-pentaen-7-yl]-1-(4,4-difluorocyclohexyl)ethan-1-ol]",0.1 to 1

# Further lines, results first:
row,IC50 [µM],SMILES
1,0.1 to 1,"COc1ccc2c(n1)C(CC(N)C1CCCCC1)n1cncc1-2 (single isomer, unassigned) [Compound 118b, 1-cyclohexyl-2-[10-methoxy-4,6,9-triazatricyclo[6.4.0.0^[2,6]]dodeca-1(8),2,4,9,11-pentaen-7-yl]ethan-1-amine]"
2,0.1 to 1,"COc1ccc2c(n1)C(CC(N)C1CCC(C)(C)CC1)n1cncc1-2 (single isomer, unassigned) [Compound 119c, 1-(4,4-dimethylcyclohexyl)-2-[10-methoxy-4,6,9-triazatricyclo[6.4.0.0^[2,6]]dodeca-1(8),2,4,9,11-pentaen-7-yl]ethan-1-amine]"
3,0.1 to 1,"COc1ccc2c(n1)C(CC(N)C1CCC(F)(F)CC1)n1cncc1-2 (single isomer, unassigned) [Compound 120c, 1-(4,4-difluorocyclohexyl)-2-[10-methoxy-4,6,9-triazatricyclo[6.4.0.0^[2,6]]dodeca-1(8),2,4,9,11-pentaen-7-yl]ethan-1-amine]"
4,< 0.1,"NS(=O)(=O)C1CCC(F)(CCC2c3ccccc3-c3cncn32)CC1 (single isomer, unassigned) [Compound 121a, 4-fluoro-4-[2-[5H-imidazo[4,3-a]isoindol-5-yl]ethyl]cyclohexane-1-sulfonamide]"
5,< 0.1,"NS(=O)(=O)C1CCC(F)(CCC2c3ccccc3-c3cncn32)CC1 (single isomer, unassigned) [Compound 121d, 4-fluoro-4-[2-[5H-imidazo[4,3-a]isoindol-5-yl]ethyl]cyclohexane-1-sulfonamide]"
6,< 0.1,"O[C@H]1CC[C@](F)(CC[C@H]2c3ccccc3-c3cncn32)CC1 [Compound 14b, (1S,4s)-4-(2-((S)-5H-imidazo[5,1-a]isoindol-5-yl)ethyl)-4-fluorocyclohexan-1-ol]"
7,0.1 to 1,"Fc1ccc2c(n1)C(CCC1(F)CCCCC1)n1cncc1-2 (centres unmarked) [Compound 17, 10-fluoro-7-[2-(1-fluorocyclohexyl)ethyl]-4,6,9-triazatricyclo[6.4.0.0^[2,6]]dodeca-1(8),2,4,9,11-pentaene]"
8,0.1 to 1,"OC(CC1c2nc(F)ccc2-c2cncn21)C1CCCCC1 (centres unmarked) [Compound 31a, 1-cyclohexyl-2-[10-fluoro-4,6,9-triazatricyclo[6.4.0.0^[2,6]]dodeca-1(8),2,4,9,11-pentaen-7-yl]ethan-1-ol]"
9,0.1 to 1,"COc1ccc2c(n1)C(CC(O)C1CCC(F)(F)CC1)n1cncc1-2 (centres unmarked) [Compound 33a, 1-(4,4-difluorocyclohexyl)-2-[10-methoxy-4,6,9-triazatricyclo[6.4.0.0^[2,6]]dodeca-1(8),2,4,9,11-pentaen-7-yl]ethan-1-ol]"
10,0.1 to 1,"Oc1cccc2c1-c1cncn1C2CCC1(F)CCC(O)CC1 (centres unmarked) [Compound 44a, 5-(2-(1-fluoro-4-hydroxycyclohexyl)ethyl)-5H-imidazo[5,1-a]isoindol-9-ol]"
11,0.1 to 1,"FC1(F)CCC(CCC2c3ncccc3-c3cncn32)CC1 (centres unmarked) [Compound 49, 7-[2-(4,4-difluorocyclohexyl)ethyl]-4,6,9-triazatricyclo[6.4.0.0^[2,6]]dodeca-1(8),2,4,9,11-pentaene]"
12,0.1 to 1,"c1cnc2c(c1)-c1cncn1C2CCC1CCCCC1 (centres unmarked) [Compound 50, 7-(2-cyclohexylethyl)-4,6,9-triazatricyclo[6.4.0.0^[2,6]]dodeca-1(8),2,4,9,11-pentaene]"
